From patent US20120172228A1, “ALCOHOL ALKOXYLATES AS ADJUVANTS FOR AGROCHEMICAL FORMULATIONS” (SYNGENTA CROP PROTECTION, LLC, priority 2009, published 2012) come the findings set out here.

Holding throughout (assay type): in vivo
One assay concerns setaria viridis (SETVI). The assay is described as follows: Adjuvant with herbicide pinoxaden on SETVI. The note with it: pinoxaden 7.5 or 15 g/ha; butylene oxide adjuvants 0.2%, TEHP 0.5% v/v; 14 and 21 days. On the procedure:
(§1) In this example Sample 13 from Table 1 was compared to the oil adjuvant blend Turbocharge™. The herbicide fomesafen was applied to the weed species xanthium strumarium (XANST), setaria viridis (SETVI), abutilon theophrasti (ABUTH), and chenopodium album (CHEAL) at rates of 60 or 120 grams per hectare, using a laboratory track sprayer. Each experiment was replicated four times and the percentage damage to the weeds was assessed visually at time periods of 7, 14 and 21 days after application. Each adjuvant was applied at a rate of 0.5% of the volume of the spray water. Four effects were evaluated: pesticide rate (2 levels), adjuvant type (two levels), weed species (four levels) and days after application (three levels). […] The effect of each adjuvant was pulled out from the model and the least significant differences evaluated using a Student's t method. […]
In this example the responses of the adjuvants 13, 17, 19, 21, 22 and 23 were measured at an application rate of 0.2% of the volume of the spray solution used. […] In each case the experiments were replicated four times and the percentage damage to the weeds was assessed visually at time periods of 14 and 21 days after application.
In this example the response of butylene oxide sample 27 of Table 1 was measured at an application rate of 0.2% of the volume of the spray solution used. […]

Assay [1] deals with lolium perenne (LOLPE), alopecurius myosuirides (ALOMY), avena fatua (AVEFA). The assay is described as follows: Adjuvant with herbicide pinoxaden, mean across three weed species (Example 22). The note with it: pinoxaden 7.5, 11.25 or 15 g/ha; Sample 13 0.2%, TEHP 0.5%; 14 and 21 days. On the procedure:
In this example Sample 13 from Table 1 was compared to the oil adjuvant blend Turbocharge™. The herbicide fomesafen was applied to the weed species xanthium strumarium (XANST), setaria viridis (SETVI), abutilon theophrasti (ABUTH), and chenopodium album (CHEAL) at rates of 60 or 120 grams per hectare, using a laboratory track sprayer. Each experiment was replicated four times and the percentage damage to the weeds was assessed visually at time periods of 7, 14 and 21 days after application. Each adjuvant was applied at a rate of 0.5% of the volume of the spray water. Four effects were evaluated: pesticide rate (2 levels), adjuvant type (two levels), weed species (four levels) and days after application (three levels). A standard simple linear model was constructed to judge the significance of these effects. […] A model was fitted using multiple linear regression using the statistics package JMP (SAS group). The effect of each adjuvant was pulled out from the model and the least significant differences evaluated using a Student's t method. […]
In this example the response of the butylene oxide adjuvant 13 of Table 1 was measured at an application rate of 0.2% of the volume of the spray solution used. […] In each case the experiments were replicated four times and the percentage damage to the weeds was assessed visually at time periods of 14 and 21 days after application.

Assay [2] relates to chenopodium album (CHEAL), digitaria sanguinalis (DIGSA), setaria viridis (SETVI), abutilon theophrasti (ABUTH). Description: Adjuvant with herbicide nicosulfuron, track sprayer, mean across four weed species. As to the method: In this example Sample 13 from Table 1 was compared to the oil adjuvant blend Turbocharge™. The herbicide fomesafen was applied to the weed species xanthium strumarium (XANST), setaria viridis (SETVI), abutilon theophrasti (ABUTH), and chenopodium album (CHEAL) at rates of 60 or 120 grams per hectare, using a laboratory track sprayer. Each experiment was replicated four times and the percentage damage to the weeds was assessed visually at time periods of 7, 14 and 21 days after application. Each adjuvant was applied at a rate of 0.5% of the volume of the spray water. Four effects were evaluated: pesticide rate (2 levels), adjuvant type (two levels), weed species (four levels) and days after application (three levels). A standard simple linear model was constructed to judge the significance of these effects. […] The effect of each adjuvant was pulled out from the model and the least significant differences evaluated using a Student's t method. […]
(§2) In this example the butylene oxide adjuvant Sample 13 of Table 1 was compared to the commercial oil adjuvant blend Atplus™411F. […] Each experiment was replicated four times and the percentage damage to the weeds was assessed visually at time periods of 14 and 21 days after application. […]
In this example the rate response of the butylene oxide adjuvant Sample 13 of Table 1 was measured and compared to the adjuvant TEHP. […]

For assay [3], the system named is chenopodium album (CHEAL). The assay is described as follows: Adjuvant with herbicide nicosulfuron on CHEAL. The note with it: nicosulfuron 30 or 60 g/ha; adjuvants 0.2% of spray water; 14 and 21 days after application. As to the method:
as §1, §2
(§3) In this example the responses of the butylene oxide adjuvants 13, 17, 19, 21, 22 and 23 of Table 1 were measured at an application rate of 0.2% of the volume of the spray solution used. […]

In assay [4] the test system is digitaria sanguinalis (DIGSA). Description: Adjuvant with herbicide nicosulfuron on DIGSA. The settings on record: nicosulfuron 30 or 60 g/ha; adjuvants 0.2% of spray water; 14 and 21 days after application. As to the method:
as §1, §2, §3

Consider `CCCCC(CC)COP(=O)(OCC(CC)CCCC)OCC(CC)CCCC` (stereo not drawn) [TEHP, tris 2-ethylhexyl phosphate], for which the “mean efficacy (percentage damage to the weeds), SETVI” value in the assay on setaria viridis (SETVI) is reported as 77.5; ABC %. For the same compound, the “mean efficacy (percentage damage to the weeds), All weeds” value was 59.91; A % in assay [1]; 58.12; B % in assay [2] (nicosulfuron 30 or 60 g/ha, adjuvants 0.2% of spray water, 14 and 21 days after application). Also, the Mean % kill in assay [2] (nicosulfuron 30 to 60 g/ha, adjuvant rate 0.2% w/v, across four weed species, 14 and 21 days) was determined as 58.12%. The “mean efficacy (percentage damage to the weeds), CHEAL” value in assay [3] is 68.33; B %. Besides, in assay [4], the “mean efficacy (percentage damage to the weeds), DIGSA” value is reported as 69.17; A %.
